Measurements: the kinase profiling compilation of Christmann-Franck et al. (2016)
Each block holds one compound with its values, some of them ahead of it.

Experiments:
Experiment in all cases: KINOMEscan competition binding
Conditions in all cases: compound 10.0 µM
AKT2 (human) = AKT2 (human) (UniProt P31751)
AKT3 (human) = AKT3 (human) (UniProt Q9Y243)
AURKA (human) = AURKA (human) (UniProt O14965)
BRSK1 (human) = BRSK1 (human) (UniProt Q8TDC3)
BTK (human) = BTK (human) (UniProt Q06187)
CAMK1 (human) = CAMK1 (human) (UniProt Q14012)
CAMK2G (human) = CAMK2G (human) (UniProt Q13555)
CDC2L2 (human) = CDC2L2 (human) (UniProt Q9UQ88)
CDC42BPB (human) = CDC42BPB (human) (UniProt Q9Y5S2)
CDK11B (human) = CDK11B (human) (UniProt P21127)
CDK14 (human) = CDK14 (human) (UniProt O94921)
CDK8 (human) = CDK8 (human) (UniProt P49336)
CSNK1G2 (human) = CSNK1G2 (human) (UniProt P78368)
DCLK2 (human) = DCLK2 (human) (UniProt Q8N568)
[1] = tested on: EGFR (human), P00533 [P753S; 747-752 del]
EPHA2 (human) = EPHA2 (human) (UniProt P29317)
EPHB2 (human) = EPHB2 (human) (UniProt P29323)
EPHB4 (human) = EPHB4 (human) (UniProt P54760)
ERBB4 (human) = ERBB4 (human) (UniProt Q15303)
FGR (human) = FGR (human) (UniProt P09769)
FLT1 (human) = FLT1 (human) (UniProt P17948)
MAP3K4 (human) = MAP3K4 (human) (UniProt Q9Y6R4)
MAP4K3 (human) = MAP4K3 (human) (UniProt Q8IVH8)
MAPK9 (human) = MAPK9 (human) (UniProt P45984)
MAPKAPK2 (human) = MAPKAPK2 (human) (UniProt P49137)
MARK4 (human) = MARK4 (human) (UniProt Q96L34)
NEK1 (human) = NEK1 (human) (UniProt Q96PY6)
NEK5 (human) = NEK5 (human) (UniProt Q6P3R8)
NTRK2 (human) = NTRK2 (human) (UniProt Q16620)
PDGFRA (human) = PDGFRA (human) (UniProt P16234)
PKN1 (human) = PKN1 (human) (UniProt Q16512)
PLK3 (human) = PLK3 (human) (UniProt Q9H4B4)
PRKAA1 (human) = PRKAA1 (human) (UniProt Q13131)
PRKCD (human) = PRKCD (human) (UniProt Q05655)
PRKCQ (human) = PRKCQ (human) (UniProt Q04759)
RPS6KA2 KD1 (human) = RPS6KA2 KD1 (human) (UniProt Q15349)
RPS6KA6 KD1 (human) = RPS6KA6 KD1 (human) (UniProt Q9UK32)
STK32C (human) = STK32C (human) (UniProt Q86UX6)
STK4 (human) = STK4 (human) (UniProt Q13043)
TEK (human) = TEK (human) (UniProt Q02763)
[2] = molecular target: TYK2 JH1 catalytic (human) (UniProt P29597)
TYRO3 (human) = TYRO3 (human) (UniProt Q06418)

STK32C (human), sequence (Q86UX6 whole entry, looked up): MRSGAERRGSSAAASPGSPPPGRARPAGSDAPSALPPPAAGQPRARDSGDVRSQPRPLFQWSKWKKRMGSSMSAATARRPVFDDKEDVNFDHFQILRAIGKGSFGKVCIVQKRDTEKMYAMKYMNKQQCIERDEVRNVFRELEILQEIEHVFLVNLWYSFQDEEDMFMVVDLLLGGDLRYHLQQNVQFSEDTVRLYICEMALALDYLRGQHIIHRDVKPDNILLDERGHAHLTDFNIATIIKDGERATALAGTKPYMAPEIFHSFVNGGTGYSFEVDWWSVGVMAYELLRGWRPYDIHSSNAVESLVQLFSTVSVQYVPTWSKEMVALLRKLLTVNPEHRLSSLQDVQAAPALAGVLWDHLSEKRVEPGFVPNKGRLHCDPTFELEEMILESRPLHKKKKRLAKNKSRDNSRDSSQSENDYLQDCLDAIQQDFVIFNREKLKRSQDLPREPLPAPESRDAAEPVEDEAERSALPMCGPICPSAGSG
EPHA2 (human), sequence (P29317 whole entry, looked up): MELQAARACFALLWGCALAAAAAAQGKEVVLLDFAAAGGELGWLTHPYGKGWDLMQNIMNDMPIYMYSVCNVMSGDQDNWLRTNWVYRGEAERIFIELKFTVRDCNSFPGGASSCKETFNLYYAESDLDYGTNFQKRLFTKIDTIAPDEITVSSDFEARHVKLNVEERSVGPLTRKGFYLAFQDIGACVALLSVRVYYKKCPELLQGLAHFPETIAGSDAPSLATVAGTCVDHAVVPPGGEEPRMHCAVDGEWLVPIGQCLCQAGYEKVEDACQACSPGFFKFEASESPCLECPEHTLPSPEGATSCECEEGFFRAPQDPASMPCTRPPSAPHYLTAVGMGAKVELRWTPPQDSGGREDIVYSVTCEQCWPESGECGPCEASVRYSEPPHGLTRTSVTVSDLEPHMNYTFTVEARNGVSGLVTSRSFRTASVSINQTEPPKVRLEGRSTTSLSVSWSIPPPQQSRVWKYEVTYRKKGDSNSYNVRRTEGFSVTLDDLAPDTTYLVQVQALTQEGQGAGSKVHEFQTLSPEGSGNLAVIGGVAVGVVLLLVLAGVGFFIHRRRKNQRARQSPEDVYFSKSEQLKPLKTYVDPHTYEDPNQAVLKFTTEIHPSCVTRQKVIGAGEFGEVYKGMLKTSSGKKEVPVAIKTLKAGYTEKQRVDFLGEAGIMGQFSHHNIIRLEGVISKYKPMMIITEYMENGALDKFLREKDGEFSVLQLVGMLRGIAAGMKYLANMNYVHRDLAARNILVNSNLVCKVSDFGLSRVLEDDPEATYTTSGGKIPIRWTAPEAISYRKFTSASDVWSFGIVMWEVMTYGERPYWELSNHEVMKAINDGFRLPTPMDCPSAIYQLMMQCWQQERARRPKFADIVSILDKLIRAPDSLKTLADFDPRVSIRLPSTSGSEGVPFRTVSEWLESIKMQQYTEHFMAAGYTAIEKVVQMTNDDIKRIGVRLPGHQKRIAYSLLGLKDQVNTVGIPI
TYK2 JH1 catalytic (human), sequence (P29597 whole entry, looked up): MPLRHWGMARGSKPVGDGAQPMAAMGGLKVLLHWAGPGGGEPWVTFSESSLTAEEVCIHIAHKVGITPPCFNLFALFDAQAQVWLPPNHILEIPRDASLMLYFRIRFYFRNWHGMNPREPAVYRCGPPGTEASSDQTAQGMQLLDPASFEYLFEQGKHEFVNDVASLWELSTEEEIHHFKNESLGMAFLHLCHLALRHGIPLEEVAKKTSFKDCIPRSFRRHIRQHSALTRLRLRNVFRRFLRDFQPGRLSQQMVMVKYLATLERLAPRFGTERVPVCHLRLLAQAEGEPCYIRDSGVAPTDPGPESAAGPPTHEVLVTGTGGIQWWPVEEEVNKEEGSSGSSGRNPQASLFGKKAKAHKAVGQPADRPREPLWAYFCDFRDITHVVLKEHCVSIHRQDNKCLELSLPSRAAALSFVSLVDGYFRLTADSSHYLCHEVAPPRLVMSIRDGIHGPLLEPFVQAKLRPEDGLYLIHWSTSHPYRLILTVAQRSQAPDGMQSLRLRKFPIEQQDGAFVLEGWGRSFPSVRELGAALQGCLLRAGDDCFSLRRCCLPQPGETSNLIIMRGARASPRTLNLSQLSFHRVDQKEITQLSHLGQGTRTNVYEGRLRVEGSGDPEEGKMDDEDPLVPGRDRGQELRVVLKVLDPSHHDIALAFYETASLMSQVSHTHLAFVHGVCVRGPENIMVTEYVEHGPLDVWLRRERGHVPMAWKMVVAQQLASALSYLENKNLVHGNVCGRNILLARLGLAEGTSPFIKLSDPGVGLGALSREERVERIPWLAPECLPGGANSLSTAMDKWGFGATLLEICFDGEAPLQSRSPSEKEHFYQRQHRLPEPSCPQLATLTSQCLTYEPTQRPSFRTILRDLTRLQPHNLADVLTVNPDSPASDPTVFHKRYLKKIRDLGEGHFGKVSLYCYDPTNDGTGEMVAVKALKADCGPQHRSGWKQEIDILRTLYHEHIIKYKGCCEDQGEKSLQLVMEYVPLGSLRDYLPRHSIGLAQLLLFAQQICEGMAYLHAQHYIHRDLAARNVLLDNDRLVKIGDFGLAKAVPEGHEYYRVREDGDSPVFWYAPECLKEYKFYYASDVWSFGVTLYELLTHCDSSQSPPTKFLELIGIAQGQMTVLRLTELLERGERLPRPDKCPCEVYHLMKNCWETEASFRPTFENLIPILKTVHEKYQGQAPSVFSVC
CDK11B (human), sequence (P21127 whole entry, looked up): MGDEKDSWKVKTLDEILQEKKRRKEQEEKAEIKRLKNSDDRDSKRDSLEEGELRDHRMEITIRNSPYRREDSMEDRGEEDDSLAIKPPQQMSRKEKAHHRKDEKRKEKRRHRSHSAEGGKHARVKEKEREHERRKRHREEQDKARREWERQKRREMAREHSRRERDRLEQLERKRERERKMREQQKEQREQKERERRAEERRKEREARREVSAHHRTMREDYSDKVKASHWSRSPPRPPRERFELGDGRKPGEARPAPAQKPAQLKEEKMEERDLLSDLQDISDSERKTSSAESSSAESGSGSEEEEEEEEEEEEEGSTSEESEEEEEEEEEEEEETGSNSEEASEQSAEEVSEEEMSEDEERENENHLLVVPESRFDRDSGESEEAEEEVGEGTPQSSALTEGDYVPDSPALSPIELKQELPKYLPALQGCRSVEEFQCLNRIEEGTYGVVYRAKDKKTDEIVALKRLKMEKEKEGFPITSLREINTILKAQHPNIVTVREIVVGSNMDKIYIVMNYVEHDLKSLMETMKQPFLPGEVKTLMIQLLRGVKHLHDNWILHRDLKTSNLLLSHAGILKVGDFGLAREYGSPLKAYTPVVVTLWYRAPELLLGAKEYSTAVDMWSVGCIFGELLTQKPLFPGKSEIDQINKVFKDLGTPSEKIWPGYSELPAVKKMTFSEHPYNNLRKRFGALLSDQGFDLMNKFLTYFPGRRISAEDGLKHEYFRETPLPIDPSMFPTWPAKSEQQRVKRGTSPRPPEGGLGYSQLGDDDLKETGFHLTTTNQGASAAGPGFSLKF
MAPKAPK2 (human), sequence (P49137 whole entry, looked up): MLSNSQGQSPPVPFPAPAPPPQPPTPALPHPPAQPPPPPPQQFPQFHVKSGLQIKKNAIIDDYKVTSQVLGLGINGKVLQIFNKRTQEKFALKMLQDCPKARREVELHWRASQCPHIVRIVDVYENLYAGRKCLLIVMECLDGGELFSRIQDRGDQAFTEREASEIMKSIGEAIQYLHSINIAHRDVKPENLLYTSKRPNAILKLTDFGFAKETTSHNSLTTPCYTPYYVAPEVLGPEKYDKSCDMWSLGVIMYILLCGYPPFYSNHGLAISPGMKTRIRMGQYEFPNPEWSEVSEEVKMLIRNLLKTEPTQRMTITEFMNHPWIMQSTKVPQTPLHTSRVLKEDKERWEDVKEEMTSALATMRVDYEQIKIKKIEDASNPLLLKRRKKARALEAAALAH
PRKCD (human), sequence (Q05655 whole entry, looked up): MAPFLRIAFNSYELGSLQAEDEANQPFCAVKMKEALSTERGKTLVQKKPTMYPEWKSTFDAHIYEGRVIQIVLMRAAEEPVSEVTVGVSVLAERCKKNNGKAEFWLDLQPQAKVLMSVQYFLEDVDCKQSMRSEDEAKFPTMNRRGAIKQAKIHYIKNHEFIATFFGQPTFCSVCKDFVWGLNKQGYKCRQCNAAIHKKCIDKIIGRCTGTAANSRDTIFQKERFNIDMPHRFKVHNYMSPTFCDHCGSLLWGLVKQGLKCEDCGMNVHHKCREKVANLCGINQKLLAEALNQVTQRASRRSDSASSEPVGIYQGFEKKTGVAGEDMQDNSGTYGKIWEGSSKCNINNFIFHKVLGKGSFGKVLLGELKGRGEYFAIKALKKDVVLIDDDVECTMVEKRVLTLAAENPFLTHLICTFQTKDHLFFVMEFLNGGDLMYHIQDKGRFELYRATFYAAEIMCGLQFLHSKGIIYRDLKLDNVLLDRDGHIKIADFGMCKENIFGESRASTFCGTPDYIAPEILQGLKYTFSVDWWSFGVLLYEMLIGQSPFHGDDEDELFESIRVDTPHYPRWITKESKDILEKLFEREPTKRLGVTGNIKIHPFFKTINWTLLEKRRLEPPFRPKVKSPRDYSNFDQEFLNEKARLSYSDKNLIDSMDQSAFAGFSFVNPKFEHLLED
CSNK1G2 (human), sequence (P78368 whole entry, looked up): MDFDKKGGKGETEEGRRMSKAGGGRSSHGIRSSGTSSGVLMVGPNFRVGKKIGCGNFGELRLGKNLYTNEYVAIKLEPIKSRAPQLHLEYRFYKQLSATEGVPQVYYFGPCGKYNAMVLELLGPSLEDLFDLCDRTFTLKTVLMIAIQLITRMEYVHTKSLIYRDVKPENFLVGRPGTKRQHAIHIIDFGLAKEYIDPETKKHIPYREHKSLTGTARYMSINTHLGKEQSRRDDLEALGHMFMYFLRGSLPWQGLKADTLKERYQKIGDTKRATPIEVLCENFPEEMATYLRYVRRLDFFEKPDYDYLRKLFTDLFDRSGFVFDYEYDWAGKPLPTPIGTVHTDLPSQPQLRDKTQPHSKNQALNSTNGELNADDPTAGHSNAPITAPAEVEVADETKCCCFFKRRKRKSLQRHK

- kinase still bound, per cent of control (AKT2 (human)): 96%
- kinase still bound, per cent of control (AKT3 (human)): 100%
- kinase still bound, per cent of control (AURKA (human)): 75%
- kinase still bound, per cent of control (BRSK1 (human)): 81%
- kinase still bound, per cent of control (BTK (human)): 82%
- kinase still bound, per cent of control (CAMK1 (human)): 71%
- kinase still bound, per cent of control (CAMK2G (human)): 57%
- kinase still bound, per cent of control (CDC2L2 (human)): 100%
- kinase still bound, per cent of control (CDC42BPB (human)): 99%
- kinase still bound, per cent of control (CDK11B (human)): 85%
- kinase still bound, per cent of control (CDK14 (human)): 96%
- kinase still bound, per cent of control (CDK8 (human)): 100%
- kinase still bound, per cent of control (CSNK1G2 (human)): 87%
- kinase still bound, per cent of control (DCLK2 (human)): 1%
- kinase still bound, per cent of control [1]: 82%
- kinase still bound, per cent of control (EPHA2 (human)): 100%
- kinase still bound, per cent of control (EPHB2 (human)): 100%
- kinase still bound, per cent of control (EPHB4 (human)): 100%
- kinase still bound, per cent of control (ERBB4 (human)): 88%
- kinase still bound, per cent of control (FGR (human)): 98%
- kinase still bound, per cent of control (FLT1 (human)): 100%
- kinase still bound, per cent of control (MAP3K4 (human)): 71%
- kinase still bound, per cent of control (MAP4K3 (human)): 79%
- kinase still bound, per cent of control (MAPK9 (human)): 82%
- kinase still bound, per cent of control (MAPKAPK2 (human)): 89%
- kinase still bound, per cent of control (MARK4 (human)): 59%
- kinase still bound, per cent of control (NEK1 (human)): 77%
- kinase still bound, per cent of control (NEK5 (human)): 94%
- kinase still bound, per cent of control (NTRK2 (human)): 83%
- kinase still bound, per cent of control (PDGFRA (human)): 87%
- kinase still bound, per cent of control (PKN1 (human)): 91%
- kinase still bound, per cent of control (PLK3 (human)): 22%
- kinase still bound, per cent of control (PRKAA1 (human)): 99%
- kinase still bound, per cent of control (PRKCD (human)): 100%
- kinase still bound, per cent of control (PRKCQ (human)): 92%
- kinase still bound, per cent of control (RPS6KA2 KD1 (human)): 82%
- kinase still bound, per cent of control (RPS6KA6 KD1 (human)): 96%
- kinase still bound, per cent of control (STK32C (human)): 99%
- kinase still bound, per cent of control (STK4 (human)): 100%
- kinase still bound, per cent of control (TEK (human)): 88%
- kinase still bound, per cent of control [2]: 62%
- kinase still bound, per cent of control (TYRO3 (human)): 76%
Structure (SMILES): COc1cc(N2CCN(C)CC2)ccc1Nc1ncc2c(n1)N(C)c1sccc1C(=O)N2C

- kinase still bound, per cent of control (AKT2 (human)): 100%
- kinase still bound, per cent of control (AKT3 (human)): 88%
- kinase still bound, per cent of control (AURKA (human)): 100%
- kinase still bound, per cent of control (BRSK1 (human)): 97%
- kinase still bound, per cent of control (BTK (human)): 100%
- kinase still bound, per cent of control (CAMK1 (human)): 100%
- kinase still bound, per cent of control (CAMK2G (human)): 100%
- kinase still bound, per cent of control (CDC2L2 (human)): 100%
- kinase still bound, per cent of control (CDC42BPB (human)): 100%
- kinase still bound, per cent of control (CDK11B (human)): 96%
- kinase still bound, per cent of control (CDK14 (human)): 100%
- kinase still bound, per cent of control (CDK8 (human)): 100%
- kinase still bound, per cent of control (CSNK1G2 (human)): 100%
- kinase still bound, per cent of control (DCLK2 (human)): 70%
- kinase still bound, per cent of control [1]: 100%
- kinase still bound, per cent of control (EPHA2 (human)): 100%
- kinase still bound, per cent of control (EPHB2 (human)): 94%
- kinase still bound, per cent of control (EPHB4 (human)): 100%
- kinase still bound, per cent of control (ERBB4 (human)): 100%
- kinase still bound, per cent of control (FGR (human)): 100%
- kinase still bound, per cent of control (FLT1 (human)): 100%
- kinase still bound, per cent of control (MAP3K4 (human)): 85%
- kinase still bound, per cent of control (MAP4K3 (human)): 100%
- kinase still bound, per cent of control (MAPK9 (human)): 100%
- kinase still bound, per cent of control (MAPKAPK2 (human)): 96%
- kinase still bound, per cent of control (MARK4 (human)): 93%
- kinase still bound, per cent of control (NEK1 (human)): 100%
- kinase still bound, per cent of control (NEK5 (human)): 100%
- kinase still bound, per cent of control (NTRK2 (human)): 53%
- kinase still bound, per cent of control (PDGFRA (human)): 100%
- kinase still bound, per cent of control (PKN1 (human)): 85%
- kinase still bound, per cent of control (PLK3 (human)): 100%
- kinase still bound, per cent of control (PRKAA1 (human)): 100%
- kinase still bound, per cent of control (PRKCD (human)): 100%
- kinase still bound, per cent of control (PRKCQ (human)): 100%
- kinase still bound, per cent of control (RPS6KA2 KD1 (human)): 100%
- kinase still bound, per cent of control (RPS6KA6 KD1 (human)): 100%
- kinase still bound, per cent of control (STK32C (human)): 100%
- kinase still bound, per cent of control (STK4 (human)): 71%
- kinase still bound, per cent of control (TEK (human)): 97%
- kinase still bound, per cent of control [2]: 38%
- kinase still bound, per cent of control (TYRO3 (human)): 100%
Structure (SMILES): CN1C(=O)c2ccccc2N(C)c2nc(NS(=O)(=O)c3ccc(N)cc3)ncc21

- kinase still bound, per cent of control (AKT2 (human)): 100%
- kinase still bound, per cent of control (AKT3 (human)): 98%
- kinase still bound, per cent of control (AURKA (human)): 100%
- kinase still bound, per cent of control (BRSK1 (human)): 100%
- kinase still bound, per cent of control (BTK (human)): 51%
- kinase still bound, per cent of control (CAMK1 (human)): 68%
- kinase still bound, per cent of control (CAMK2G (human)): 65%
- kinase still bound, per cent of control (CDC2L2 (human)): 95%
- kinase still bound, per cent of control (CDC42BPB (human)): 100%
- kinase still bound, per cent of control (CDK11B (human)): 100%
- kinase still bound, per cent of control (CDK14 (human)): 73%
- kinase still bound, per cent of control (CDK8 (human)): 44%
- kinase still bound, per cent of control (CSNK1G2 (human)): 3.6%
- kinase still bound, per cent of control (DCLK2 (human)): 67%
- kinase still bound, per cent of control [1]: 76%
- kinase still bound, per cent of control (EPHA2 (human)): 100%
- kinase still bound, per cent of control (EPHB2 (human)): 71%
- kinase still bound, per cent of control (EPHB4 (human)): 100%
- kinase still bound, per cent of control (ERBB4 (human)): 68%
- kinase still bound, per cent of control (FGR (human)): 84%
- kinase still bound, per cent of control (FLT1 (human)): 93%
- kinase still bound, per cent of control (MAP3K4 (human)): 14%
- kinase still bound, per cent of control (MAP4K3 (human)): 53%
- kinase still bound, per cent of control (MAPK9 (human)): 100%
- kinase still bound, per cent of control (MAPKAPK2 (human)): 100%
- kinase still bound, per cent of control (MARK4 (human)): 100%
- kinase still bound, per cent of control (NEK1 (human)): 73%
- kinase still bound, per cent of control (NEK5 (human)): 100%
- kinase still bound, per cent of control (NTRK2 (human)): 86%
- kinase still bound, per cent of control (PDGFRA (human)): 99%
- kinase still bound, per cent of control (PKN1 (human)): 28%
- kinase still bound, per cent of control (PLK3 (human)): 85%
- kinase still bound, per cent of control (PRKAA1 (human)): 59%
- kinase still bound, per cent of control (PRKCD (human)): 32%
- kinase still bound, per cent of control (PRKCQ (human)): 44%
- kinase still bound, per cent of control (RPS6KA2 KD1 (human)): 64%
- kinase still bound, per cent of control (RPS6KA6 KD1 (human)): 34%
- kinase still bound, per cent of control (STK32C (human)): 100%
- kinase still bound, per cent of control (STK4 (human)): 96%
- kinase still bound, per cent of control (TEK (human)): 100%
- kinase still bound, per cent of control [2]: 2.5%
- kinase still bound, per cent of control (TYRO3 (human)): 100%
Structure (SMILES): O=C1NC(=O)/C(=C/c2c[nH]c(=O)c(-c3ccc(N4CCNCC4)nc3)c2)S1
